Experimental data from US11318190B2, “Methods and compositions for treating liver disease” (UNITED STATES GOVERNMENT AS REPRESENTED BY THE DEPARTMENT …, priority 2017, dated 2022).

Legend:
[1] = test system: human hepatic stellate cells (hHSC); assay: hHSC activation by cholangiocyte supernatants from treated mice (qPCR); format: cell-based
Protocol: In vitro experiments were performed in human hepatic stellate cells (hHSC) that were purchased from ScienCell Research Laboratories (Carlsbad, Calif.) that were maintained in standard conditions.
[…] Activation of hHSCs was determined by qPCR for FN-1, TGF-β1, α-SMA, and collagen type-1a (Kennedy, L L et al., Knockout of microRNA-21 reduces biliary hyperplasia and liver fibrosis in cholestatic bile duct ligated mice, Lab Invest 96:1256-1267 (2016)).

[2] = test system: HHSteCs; assay: HHSteCs incubated with biliary/IMCL supernatants with/without LY2109761, or with TGF-β1 (Example 2); format: cell-based, human
Protocol: Biliary supernatants were obtained from normal and BDL WT mice and Sct^−/−, SR^−/− and Sct^−/−/SR^−/− BDL mice as well as normal WT mice treated with saline or secretin. HHSteCs were incubated with the aforementioned biliary supernatants (containing different levels of TGF-β1) for 24 hr (in the absence or presence of LY2109761) before measuring the expression of senescence and fibrosis genes by real-time PCR. Furthermore, HHSteCs were incubated with the supernatant of large IMCLs treated for 0.2% bovine serum albumin (basal) or secretin (10 nM) with/without LY2109761 for 6 hr before measuring the mRNA expression of fibrosis and senescence genes. To provide direct evidence that TGF-β1 directly modulates fibrosis and senescence of IMCLs and HHSteCs, these cells were stimulated with TGF-β1 (10 nM) for 24 hr before measuring the expression of PCNA as well as fibrosis and senescence genes by real-time PCR.

[3] = test system: WT mice; assay: WT mice treated 1 wk with secretin: TGF-β1, fibrosis, cellular senescence; format: in vivo, mouse
Protocol: WT mice were treated for 1 wk with saline or secretin (Sct; 2.5 nmoles/kg body weight per day) before collecting cholangiocytes, HSCs and cholangiocyte supernatants. The levels of TGF-β1 were measured in short-term (6-hour) cultures of cholangiocytes by ELISA kits. Subsequently, we measured: (i) liver fibrosis by immunofluorescence for Col1a1 in liver sections and real-time PCR for TGF-β1, TFG-β1R, Col1a1, α-SMA and Fn1 in cholangiocytes and HSCs; and (ii) cellular senescence by immunofluorescence in liver sections for p16 and real-time PCR for p16 and p21 in cholangiocytes and HSC.

[4] = cholangiocyte supernatant from secretin-treated WT mice, 24 hr
[5] = supernatant of large IMCLs after secretin 10 nM, 6 hr

secretin [Sct]
expression of FN-1, TGF-β1, α-SMA and collagen type-1a in hHSCs ([1]; cholangiocyte supernatants from treated dnTGF-βRII mice 12 wks): further enhanced
expression of FN-1, TGF-β1, α-SMA and collagen type-1a in hHSCs ([1]; cholangiocyte supernatants from treated dnTGF-βRII mice 34 wks): reduced
expression of fibrosis genes in HHSteCs [2, 4]: increased expression
expression of senescence genes in HHSteCs [2, 4]: reduced expression
expression of senescence genes of HHSteCs [2, 5]: decreases
fibrosis gene expression of HHSteCs [2, 5]: increases
TGF-β1 levels in cholangiocyte supernatant ([3]; secretin 2.5 nmoles/kg/day 1 wk vs saline): enhanced levels
biliary immunoreactivity of Collagen I and mRNA of TGF-β1, TFG-β1R, Col1a1, α-SMA, Fn1 in cholangiocytes and HSCs ([3]; secretin 1 wk): increased
p16 immunoreactivity in liver sections, p16 and p21 expression in cholangiocytes ([3]; secretin 1 wk): enhanced
p16 and p21 mRNA expression in isolated HSCs ([3]; secretin 1 wk vs saline): reduced
